Measured values from patent US20240360179A1, “STAPLED PEPTIDES AND METHODS THEREOF” (FOG PHARMACEUTICALS, INC., priority 2021, published 2024).
pIC50: −log10 of the molar value. Where two headings read alike, the source gives them in different places.

How the values were obtained:
[1] = target: T1, beta-catenin/TCF4 interaction (Homo sapiens, UniProt P35222); assay type: cell-based; settings: read-out: NanoBRET Abs IC50
T1 construct: host or cells: HEK293
T1 sequence (P35222 1-781): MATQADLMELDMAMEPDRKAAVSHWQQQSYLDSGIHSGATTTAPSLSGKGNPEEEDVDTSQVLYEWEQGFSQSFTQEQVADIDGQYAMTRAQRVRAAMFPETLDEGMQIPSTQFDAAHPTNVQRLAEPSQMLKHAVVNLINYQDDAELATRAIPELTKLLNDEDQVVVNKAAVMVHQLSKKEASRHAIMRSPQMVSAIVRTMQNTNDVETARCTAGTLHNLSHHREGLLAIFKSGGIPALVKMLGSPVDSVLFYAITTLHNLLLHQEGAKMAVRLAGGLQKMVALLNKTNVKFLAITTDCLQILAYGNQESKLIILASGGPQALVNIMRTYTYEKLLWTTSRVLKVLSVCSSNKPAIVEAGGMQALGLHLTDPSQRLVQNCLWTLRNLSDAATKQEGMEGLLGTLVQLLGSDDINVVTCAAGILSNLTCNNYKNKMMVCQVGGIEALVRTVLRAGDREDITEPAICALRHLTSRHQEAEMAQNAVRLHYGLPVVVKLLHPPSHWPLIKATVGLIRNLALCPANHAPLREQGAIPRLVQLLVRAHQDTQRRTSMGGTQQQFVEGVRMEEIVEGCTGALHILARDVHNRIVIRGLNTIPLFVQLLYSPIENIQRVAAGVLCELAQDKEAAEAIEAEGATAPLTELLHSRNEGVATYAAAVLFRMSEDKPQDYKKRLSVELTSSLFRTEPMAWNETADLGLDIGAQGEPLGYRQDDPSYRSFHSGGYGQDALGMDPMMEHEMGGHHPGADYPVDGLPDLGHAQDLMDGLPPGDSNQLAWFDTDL

[2] = target: T2, TCF/LEF luciferase reporter in DLD1 cells (Homo sapiens, UniProt P35222); experiment: TCF reporter assay in DLD1 cells (4% or 20% FBS); assay type: cell-based
T2 sequence (P35222 2-781): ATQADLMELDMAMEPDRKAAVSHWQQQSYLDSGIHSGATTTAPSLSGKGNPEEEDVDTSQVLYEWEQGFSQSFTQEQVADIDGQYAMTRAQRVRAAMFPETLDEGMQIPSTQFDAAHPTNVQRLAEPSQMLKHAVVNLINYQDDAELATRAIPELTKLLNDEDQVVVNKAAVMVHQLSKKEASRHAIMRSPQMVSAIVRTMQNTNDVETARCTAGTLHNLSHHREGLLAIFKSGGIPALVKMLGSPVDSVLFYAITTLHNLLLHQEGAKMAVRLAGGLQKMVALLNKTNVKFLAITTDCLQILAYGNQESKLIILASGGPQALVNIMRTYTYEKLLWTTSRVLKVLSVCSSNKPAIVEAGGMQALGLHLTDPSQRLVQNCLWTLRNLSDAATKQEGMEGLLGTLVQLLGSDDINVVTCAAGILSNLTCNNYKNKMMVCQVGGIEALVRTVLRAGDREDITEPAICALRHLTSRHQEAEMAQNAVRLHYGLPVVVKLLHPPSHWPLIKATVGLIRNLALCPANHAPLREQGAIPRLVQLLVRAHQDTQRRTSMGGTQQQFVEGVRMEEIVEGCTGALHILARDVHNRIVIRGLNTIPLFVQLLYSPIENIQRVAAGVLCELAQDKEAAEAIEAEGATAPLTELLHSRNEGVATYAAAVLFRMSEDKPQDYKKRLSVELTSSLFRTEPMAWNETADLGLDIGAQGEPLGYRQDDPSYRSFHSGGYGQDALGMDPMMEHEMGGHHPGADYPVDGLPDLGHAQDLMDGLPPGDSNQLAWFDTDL

[3] = target: T3, full-length B-Catenin (Uniprot ID P35222) (Homo sapiens, UniProt P35222); assay type: binding
T3 construct: 10 nM full-length B-Catenin (Uniprot ID P35222)
T3 sequence (P35222 1-781): T1 sequence (P35222 1-781)

COLO320DM cells = experiment: COLO320DM proliferation assay (CellTiter-Glo); assay type: cell-based, human; settings: read-out: COLO320DM Proliferation Abs IC50
Summary of the method: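 COLO320DM cells, 250 cells/well in RPMI-1640 with 4% FBS, attached 18-22 h, then exposed 96 h at 37 °C, 5% CO2 to 7-point 1/2 dilutions from 20 uM to 313 nM. Viability by CellTiter-Glo luminescence; IC50 derived from the dose curve.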

[4] = read-out: DLD1 4% Abs IC50, DLD1 TCF reporter, 4% FBS
[5] = read-out: DLD1 4% Abs IC50, DLD1 TCF reporter, 4% FBS, absolute IC50
[6] = read-out: beta-catenin TCF4 competition FP assay IC50
[7] = read-out: beta-catenin TCF4 DLD1 cell reporter assay IC50

## 5hexenyl-MePro-Asp-AllylGly-R5-Asp-3COOHF-Aib-Ala-Phe-Lys*3-PyrS2-3Thi-BztA-GlnR*3-Ala-NH2 [I-430]
[1]
  pIC50: < 5.00

## Ac-PL3-Asn-Npg-B5-Asp-3COOHF-Aib-Ala-Phe-Lys*3-PyrS2-2F3MeF-BztA-GlnR*3-Leu-Ser-NH2 [I-144]
[2]; [4]
  pIC50: 5.30 to 6.00

## Ac-PL3-Asn-Npg-B5-Asp-3COOHF-Ala-Ala-Phe-Lys*3-PyrS2-2F3MeF-BztA-GlnR*3-Leu-Ser-NH2 [I-142]
[2]; [4]
  pIC50: < 5.30

## Ac-PL3-Asp-Cha-B5-Asp-3COOHF-Ala-Ala-Phe-Lys*3-PyrS2-2F3MeF-BztA-GlnR*3-Leu-NH2 [I-106]
[2]; [4]
  pIC50: ≥ 6.00

## Ac-PL3-Asp-Npg-B5-Asp-3COOHF-Aib-Ala-Phe-Lys*3-PyrS2-2F3MeF-BztA-GlnR*3-Ala-NH2 [I-69]
[3]; read-out: beta-Catenin FP IC50
  pIC50: > 7.30
[2]; [4]
  pIC50: ≥ 6.00
COLO320DM cells
  pIC50: ≥ 5.00

## Ac-PL3-Asp-Npg-B5-Asp-3COOHF-Aib-Ala-Phe-Lys*3-PyrS2-2F3MeF-BztA-GlnR*3-Leu-Ser-NH2 [I-138]
[2]; [4]
  pIC50: ≥ 6.00
COLO320DM cells
  pIC50: ≥ 5.00

## Ac-PL3-Asp-Npg-B5-Asp-3COOHF-Aib-Ala-Phe-Lys*3-PyrS2-3Thi-BztA-GlnR*3-Glu-Ala-NH2 [I-342]
[2]; [5]
  pIC50: ≥ 6.00

## Ac-PL3-Asp-Npg-B5-Asp-3COOHF-Aib-Ala-Phe-Lys*3-PyrS2-nLeu-BztA-GlnR*3-Ala-NH2 [I-272]
[3]; read-out: beta-Catenin FP IC50
  pIC50: > 7.30

## Ac-PL3-Asp-Npg-B5-Asp-3COOHF-Aib-Ala-Phe-TriAzLys*3-PyrS2-3Thi-BztA-sCH2S*3-Ala-NH2 [I-262]
[2]; [4]
  pIC50: ≥ 6.00
COLO320DM cells
  pIC50: ≥ 5.00

## Ac-PL3-Asp-Npg-B5-Asp-3COOHF-Aib-Ala-Phe-TriAzLys*3-PyrS2-Phe-BztA-sAbu*3-Ala-NH2 [I-420]
[3]; read-out: beta-Catenin FP IC50
  pIC50: > 7.30

## Ac-PL3-Asp-Npg-B5-Asp-3COOHF-Aib-Ala-Phe-[2_6-naph]Cys-PyrS2-3Thi-BztA-Cys-Ala-NH2 [I-566]
[3]; [6]
  pIC50: 7.24
[2]; [7]
  pIC50: < 4.70

## Ac-PL3-Asp-Npg-B5-Asp-3COOHF-Aib-Ala-Phe-[3_3-biph]Cys-PyrS2-3Thi-BztA-Cys-Ala-NH2 [I-567]
[3]; [6]
  pIC50: 6.92
[2]; [7]
  pIC50: < 4.70

## Ac-PL3-Asp-Npg-B5-Asp-3COOHF-Aib-Ala-Phe-[oXyl]Cys-PyrS2-2F3MeF-BztA-Cys-Ala-NH2 [I-376]
[3]; [6]
  pIC50: 6.66

## Ac-PL3-Asp-Npg-B5-Asp-3COOHF-Aib-Ala-Phe-[pXyl]Cys-PyrS2-2F3MeF-BztA-Cys-Ala-NH2 [I-377]
[3]; [6]
  pIC50: 7.03

## Ac-PL3-Asp-Npg-B5-Asp-3COOHF-Aib-Ala-Phe-sAla*3-PyrS2-3Thi-BztA-TriAzLys*3-Ala-NH2 [I-336]
[2]; [5]
  pIC50: 5.30 to 6.00

## Ac-PL3-Asp-Npg-B5-Asp-3COOHF-Aib-Ala-nLeu-Lys*3-PyrS2-Phe-34ClF-GlnR*3-Ala-NH2 [I-480]
[3]; read-out: beta-Catenin FP IC50
  pIC50: > 7.30

## Ac-PL3-Asp-Npg-B5-Asp-3COOHF-Ala-Aib-Phe-Lys*3-PyrS2-3Thi-BztA-GlnR*3-Ala-NH2 [I-442]
[1]
  pIC50: < 5.00

## Ac-PL3-Asp-Npg-B5-Asp-3COOHF-Ala-Ala-Phe-Lys*3-PyrS2-3Thi-BztA-GlnR*3-Prool [I-64]
[2]; [4]
  pIC50: 5.30 to 6.00
COLO320DM cells
  pIC50: 4.70 to 5.00

## Ac-PL3-Asp-Npg-B5-Asp-3COOHF-Ala-Ala-Phe-Lys*3-PyrS2-3Thi-BztA-hGlnR*3-Ala-NH2 [I-183]
[2]; [4]
  pIC50: 5.30 to 6.00

## Ac-PL3-Asp-Npg-B5-Asp-3COOHF-Ala-Ala-Phe-TriAzLys*3-PyrS2-3Thi-BztA-sAla*3-Ala-NH2 [I-337]
[2]; [5]
  pIC50: ≥ 6.00

## Ac-PL3-Asp-Npg-B5-Asp-3COOHF-Ala-Ala-Phe-iPrLys*3-PyrS2-3Thi-BztA-hGlnR*3-Ala-NH2 [I-187]
[2]; [4]
  pIC50: < 5.30

## Ac-PL3-Asp-Npg-B5-Asp-3COOHF-Ala-Ala-Phe-sAla*3-PyrS2-3Thi-BztA-TriAzLys*3-Ala-NH2 [I-338]
[2]; [5]
  pIC50: ≥ 6.00

## Ac-PL3-Asp-Npg-B5-Asp-3COOHF-Ala-Ala-Phe-sAla*3-PyrS2-3Thi-BztA-TriAzLys*3-NH2 [I-24]
[2]; [4]
  pIC50: 5.30 to 6.00

## Ac-PL3-Asp-Npg-B5-Asp-3COOHF-Cbg-Ala-Phe-Lys*3-PyrS2-2F3MeF-BztA-GlnR*3-Leu-Ser-NH2 [I-140]
[2]; [4]
  pIC50: ≥ 6.00

## Ac-PL3-Asp-Npg-B5-Asp-3COOHF-Cha-Ala-Phe-Lys*3-PyrS2-2F3MeF-BztA-GlnR*3-Ala-NH2 [I-102]
[3]; read-out: beta-Catenin FP IC50
  pIC50: > 7.30

## Ac-PL3-Asp-Npg-B5-Asp-3COOHF-Cpg-Ala-Phe-Lys*3-PyrS2-2F3MeF-BztA-GlnR*3-Leu-Ser-NH2 [I-139]
[2]; [4]
  pIC50: ≥ 6.00

## Ac-PL3-Asp-Npg-B5-Asp-3COOHF-CyLeu-Ala-Phe-Lys*3-PyrS2-2F3MeF-BztA-GlnR*3-Leu-Ser-NH2 [I-141]
[2]; [4]
  pIC50: ≥ 6.00

## Ac-PL3-Asp-Npg-B5-Asp-3COOHF-CyLeu-Ala-Phe-Lys*3-PyrS2-3Thi-BztA-GlnR*3-Ala-NH2 [I-383]
[3]; read-out: beta-Catenin FP IC50
  pIC50: > 7.30

## Ac-PL3-Asp-Npg-B5-Asp-3COOHF-DaMeS-Ala-Phe-Lys*3-PyrS2-3Thi-BztA-GlnR*3-Ala-NH2 [I-437]
[3]; read-out: beta-Catenin FP IC50
  pIC50: > 7.30

## Ac-PL3-Asp-Npg-B5-Asp-3COOHF-Npg-Ala-Phe-Lys*3-PyrS2-2F3MeF-BztA-GlnR*3-Ala-NH2 [I-99]
[2]; [4]
  pIC50: ≥ 6.00

## Ac-PL3-Asp-Npg-B5-Asp-3COOHF-Npg-Ala-Phe-Lys*3-PyrS2-2F3MeF-BztA-GlnR*3-Leu-NH2 [I-109]
[1]
  pIC50: < 5.00
[2]; [4]
  pIC50: 5.30 to 6.00

## Ac-PL3-Asp-Npg-B5-Asp-3COOHF-aMeDF-Ala-Phe-Lys*3-PyrS2-3Thi-BztA-GlnR*3-Ala-NH2 [I-457]
[3]; read-out: beta-Catenin FP IC50
  pIC50: > 7.30

## Ac-PL3-Asp-Npg-B5-Asp-3COOHF-nLeu-Ala-Phe-Lys*3-PyrS2-3Thi-BztA-GlnR*3-Ala-NH2 [I-70]
[2]; [4]
  pIC50: ≥ 6.00
COLO320DM cells
  pIC50: ≥ 5.00

## Ac-PL3-Asp-Npg-B5-Asp-TfeGA-Ala-Ala-Phe-Lys*3-PyrS2-2F3MeF-BztA-GlnR*3-Leu-NH2 [I-128]
[2]; [4]
  pIC50: 5.30 to 6.00

## Ac-PL3-Asp-Npg-B5-Asp-TfeGA-Ala-Ala-Phe-Lys*3-PyrS2-2F3MeF-BztA-GlnR*3-Val-NH2 [I-129]
[2]; [4]
  pIC50: 5.30 to 6.00

## Ac-PL3-Glu-Npg-B5-Glu-3COOHF-Aib-Ala-Phe-Lys*3-PyrS2-2F3MeF-BztA-GlnR*3-Ala-NH2 [I-291]
[2]; [4]
  pIC50: 5.30 to 6.00

## Ac-PL3-aThr-Npg-B5-Asp-3COOHF-Aib-Ala-Phe-Lys*3-PyrS2-3Thi-BztA-GlnR*3-Ala-NH2 [I-163]
[2]; [4]
  pIC50: < 5.30
